Laboratory results: publication PMC10999543, “Identification of kinase modulators as host-directed therapeutics against intracellular methicillin-resistant Staphylococcus aureus” (Frontiers in Cellular and Infection Microbiology, 2024)
Where two headings read alike, the source gives them in different places.

How the values were obtained:
HeLa cells = test: Compound screen by flow cytometry: HeLa cell count as surrogate readout of cell viability (z-scoreHeLa); format: cell-based, human; settings: for z-scoreHeLa mean: mean of 3 replicates; for z-scoreHeLa rep 1 / cell count rep 1: replicate 1; for z-scoreHeLa rep 2 / cell count rep 2: replicate 2; for z-scoreHeLa rep 3 / cell count rep 3: replicate 3
Outline: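 HeLa cells were infected with GFP-MRSA (mean MOI 6.8 ± 4.6) for 1 h, and extracellular bacteria were killed with 30 µg/ml gentamicin. Cells were then incubated overnight with kinase inhibitors in 5 µg/ml gentamicin, in triplicate against DMSO controls. Flow-cytometric cell count served as a viability surrogate, expressed as a plate z-score.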

intracellular MRSA = format: cell-based, Staphylococcus aureus; settings: for z-scoreMRSA+ mean: mean of 3 replicates; for z-scoreMRSA+ rep 1 / %GFP+ rep 1: replicate 1; for z-scoreMRSA+ rep 2 / %GFP+ rep 2: replicate 2; for z-scoreMRSA+ rep 3 / %GFP+ rep 3: replicate 3
Outline: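 HeLa cells infected with GFP-MRSA (MOI ~6.8), gentamicin-cleared, then incubated overnight at 37°C with inhibitors plus 5 µg/ml gentamicin; DMSO as negative control, triplicates. Flow cytometry gave % GFP-positive cells and cell count (viability surrogate); hits by plate z-score (MRSA ≤ -2, HeLa count ≥ -3).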

[1] = PKIS compound screen, Yes/No call
[2] = PKIS compounds raw data, HeLa cell count
[3] = PKIS compound screen, Yes/No call (effect without cell death)
[4] = PKIS compounds raw data, MRSA-infected HeLa cells
[5] = PKIS compound screen raw data, HeLa cell count
[6] = compound screen, HeLa cell count
[7] = PKIS compound screen raw data, MRSA-infected HeLa cells
[8] = Yes/No: effect without cell death
[9] = compound screen, MRSA-infected HeLa cells

SMILES	cell death (HeLa cells; [1])	z-scoreHeLa mean (HeLa cells; PKIS compound screen)	z-scoreHeLa rep 1 (HeLa cells; PKIS compound screen)	z-scoreHeLa rep 2 (HeLa cells; PKIS compound screen)	z-scoreHeLa rep 3 (HeLa cells; PKIS compound screen)	cell count rep 1 (HeLa cells; [2])	cell count rep 2 (HeLa cells; [2])	cell count rep 3 (HeLa cells; [2])	effect (intracellular MRSA; [1])	hit (intracellular MRSA; [3])	z-scoreMRSA+ mean (intracellular MRSA; PKIS compound screen)	z-scoreMRSA+ rep 1 (intracellular MRSA; PKIS compound screen)	z-scoreMRSA+ rep 2 (intracellular MRSA; PKIS compound screen)	z-scoreMRSA+ rep 3 (intracellular MRSA; PKIS compound screen)	%GFP+ rep 1 (intracellular MRSA; [4]) [%]	%GFP+ rep 2 (intracellular MRSA; [4]) [%]	%GFP+ rep 3 (intracellular MRSA; [4]) [%]	cell death (HeLa cells; Yes/No call from z-scoreHeLa)	z-scoreHeLa mean (HeLa cells; [6])	z-scoreHeLa rep 1 (HeLa cells; [6])	other results
CNC(=O)c1cc(-c2ccc(F)cc2)cc(-c2ccc(S(=O)(=O)N3CCCC3)cc2)c1N [GSK635416A]	No	-0.10	-0.27	0.000722	-0.04	4473	4269	6877	No	No	-0.63	-0.38	-0.50	-1.00	12.0	12.0	12.5	–	–	–	–
CCn1c(-c2nonc2N)nc2c(C#CC(C)(C)O)nc(OCCNC)cc21 [GSK949675A]	No	1.02	0.13	1.22	1.70	4918	5879	10520	No	No	0.28	0.59	0.84	-0.59	15.0	16.0	13.9	–	–	–	–
CC(=O)N1CCN(c2ccc(Nc3nccc(-c4sc(C(C)C)nc4-c4cccc(NS(=O)(=O)c5cccc(Cl)c5)c4)n3)cn2)CC1 [GSK1660437A]	–	–	–	–	–	–	–	–	–	–	–	–	–	–	–	–	–	No	-0.33	0.09	cell count rep 1 (HeLa cells; [5]): 4478; cell count rep 2 (HeLa cells; [5]): 3506; cell count rep 3 (HeLa cells; [5]): 4504; z-scoreHeLa rep 2 (HeLa cells; [6]): -0.61; z-scoreHeLa rep 3 (HeLa cells; [6]): -0.46; %GFP+ rep 1 (intracellular MRSA; [7]): 26.9%; %GFP+ rep 2 (intracellular MRSA; [7]): 24.1%; %GFP+ rep 3 (intracellular MRSA; [7]): 23.6%; effect (intracellular MRSA; Yes/No call from z-scoreMRSA+): No; hit (intracellular MRSA; [8]): No; z-scoreMRSA+ mean (intracellular MRSA; [9]): 0.39; z-scoreMRSA+ rep 1 (intracellular MRSA; [9]): 0.38; z-scoreMRSA+ rep 2 (intracellular MRSA; [9]): 0.36; z-scoreMRSA+ rep 3 (intracellular MRSA; [9]): 0.42
Cc1ccc(C(=O)Nc2ccc(Nc3ccnc4cc(-c5nccs5)ccc34)cc2O)cc1 [GW494702A]	No	0.98	0.32	1.13	1.50	6577	7707	7965	No	No	-1.32	-1.18	-1.22	-1.55	21.0	19.7	18.9	–	–	–	–
COc1cc(C=NNc2ncnc3c2cnn3-c2ccccc2)ccc1O [GW513184X]	–	–	–	–	–	3697	5698	7463	–	–	–	–	–	–	11.7	13.3	13.0	No	0.11	-0.98	z-scoreHeLa rep 2 (HeLa cells; [6]): 1.08; z-scoreHeLa rep 3 (HeLa cells; [6]): 0.24; effect (intracellular MRSA; Yes/No call from z-scoreMRSA+): No; hit (intracellular MRSA; [8]): No; z-scoreMRSA+ mean (intracellular MRSA; [9]): -0.46; z-scoreMRSA+ rep 1 (intracellular MRSA; [9]): -0.47; z-scoreMRSA+ rep 2 (intracellular MRSA; [9]): -0.0654; z-scoreMRSA+ rep 3 (intracellular MRSA; [9]): -0.85
CN1CCN(Cc2ccc(NC(=O)Nc3ccc(N(C)c4ccnc(Nc5ccc(CS(C)(=O)=O)cc5)n4)cc3)cc2)CC1 [GW827654A]	–	–	–	–	–	–	–	–	–	–	–	–	–	–	–	–	–	No	0.67	0.07	cell count rep 1 (HeLa cells; [5]): 30631; cell count rep 2 (HeLa cells; [5]): 31592; cell count rep 3 (HeLa cells; [5]): 23281; z-scoreHeLa rep 2 (HeLa cells; [6]): 1.08; z-scoreHeLa rep 3 (HeLa cells; [6]): 0.85; %GFP+ rep 1 (intracellular MRSA; [7]): 24.8%; %GFP+ rep 2 (intracellular MRSA; [7]): 24.9%; %GFP+ rep 3 (intracellular MRSA; [7]): 25.0%; effect (intracellular MRSA; Yes/No call from z-scoreMRSA+): No; hit (intracellular MRSA; [8]): No; z-scoreMRSA+ mean (intracellular MRSA; [9]): 1.38; z-scoreMRSA+ rep 1 (intracellular MRSA; [9]): 1.61; z-scoreMRSA+ rep 2 (intracellular MRSA; [9]): 1.50; z-scoreMRSA+ rep 3 (intracellular MRSA; [9]): 1.03
